In patent US20250170130A1, “MODULATORS OF MYC FAMILY PROTO-ONCOGENE PROTEIN” (Nalo Therapeutics, priority 2022, published 2025):
Where two headings read alike, the source gives them in different places.

Columns and labels:
MycN = biological target: T1, MycN (Homo sapiens, UniProt P04198); assay: Degradation of MycN protein in SK-N-BE(2) cells, JESS/Western blot of lysates; type: cell-based; settings: SKNBE2, 24 h; for Dmax at 0.5 µM: read-out: % Degradation of MycN (SKNBE2) 24 h, 0.5 μM; for Dmax at 1 µM: read-out: % Degradation of MycN (SKNBE2) 24 h, 1 μM; for Dmax at 3 µM: read-out: % Degradation of MycN (SKNBE2) 24 h, 3 μM; for Dmax at 6 µM: read-out: % Degradation of MycN (SKNBE2) 24 h, 6 μM
T1 construct: endogenous in cells; host or cells: SK-N-BE(2)
T1 sequence (P04198 1-464): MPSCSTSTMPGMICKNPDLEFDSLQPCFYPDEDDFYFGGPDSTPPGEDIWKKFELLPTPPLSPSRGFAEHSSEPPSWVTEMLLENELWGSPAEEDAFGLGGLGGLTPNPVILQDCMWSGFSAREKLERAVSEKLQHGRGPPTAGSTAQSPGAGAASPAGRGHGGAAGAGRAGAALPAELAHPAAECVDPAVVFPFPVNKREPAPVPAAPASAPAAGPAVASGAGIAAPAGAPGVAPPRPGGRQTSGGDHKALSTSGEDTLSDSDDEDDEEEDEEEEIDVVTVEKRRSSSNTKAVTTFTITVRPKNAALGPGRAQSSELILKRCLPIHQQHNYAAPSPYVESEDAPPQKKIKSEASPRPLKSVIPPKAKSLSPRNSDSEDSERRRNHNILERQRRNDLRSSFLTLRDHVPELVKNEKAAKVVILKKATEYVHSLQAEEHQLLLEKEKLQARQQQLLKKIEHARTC
Summary of the method: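 SK-N-BE(2) adherent cells (5E5 per well of a 6 well dish) were grown 24 hrs, then exposed to compounds diluted 1 in 20 in media, with DMSO controls, for 24 hrs. Cells were scraped, pelleted, PBS washed and lysed in RIPA buffer cocktail; after BCA protein quantitation, n-myc was detected by chemiluminescence on JESS/Western blot with tubulin and GAPDH loading controls read in the near infra red channel.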

MycC = biological target: T2, MycC (Homo sapiens, UniProt P01106); assay: Degradation of MycC protein in L363 cells, JESS/Western blot of lysates; type: cell-based; settings: L-363, 24 h; for Dmax at 0.5 µM: read-out: % Degradation of MycC (L-363) 24 h, 0.5 μM; for Dmax at 1 µM: read-out: % Degradation of MycC (L-363) 24 h, 1 μM; for Dmax at 3 µM: read-out: % Degradation of MycC (L-363) 24 h, 3 μM; for Dmax at 6 µM: read-out: % Degradation of MycC (L-363) 24 h, 6 μM
T2 construct: endogenous in cells; host or cells: L363
Summary of the method: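 L363 suspension cells were seeded at 1E6 cells per well and exposed to compound (stock 10 mM in DMSO) for 24 hrs. Cells were collected, spun down, rinsed with PBS, lysed in RIPA buffer cocktail on ice, clarified and kept at −80 degrees. Lysate protein was quantified by BCA, and c-myc was measured on JESS by chemiluminescence with tubulin and GAPDH loading controls in the NIR channel.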

T2 sequence (P01106 whole entry): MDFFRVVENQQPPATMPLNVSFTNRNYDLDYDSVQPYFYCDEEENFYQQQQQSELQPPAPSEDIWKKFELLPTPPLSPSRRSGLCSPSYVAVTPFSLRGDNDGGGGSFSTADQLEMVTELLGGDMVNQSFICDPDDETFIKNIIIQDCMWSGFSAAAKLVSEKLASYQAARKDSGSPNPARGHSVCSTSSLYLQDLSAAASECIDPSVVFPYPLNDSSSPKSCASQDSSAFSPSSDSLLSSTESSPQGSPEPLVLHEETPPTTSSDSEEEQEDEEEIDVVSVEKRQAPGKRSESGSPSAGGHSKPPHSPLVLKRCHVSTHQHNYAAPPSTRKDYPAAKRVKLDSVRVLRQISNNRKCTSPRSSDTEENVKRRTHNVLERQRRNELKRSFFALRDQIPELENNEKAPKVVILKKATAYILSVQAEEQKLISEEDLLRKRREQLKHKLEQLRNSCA

Row | SMILES | Dmax at 0.5 µM (MycN; SKNBE2 cells, 24 h, 0.5 μM) [%] | Dmax at 1 µM (MycN; SKNBE2 cells, 24 h, 1 μM) [%] | Dmax at 3 µM (MycN; SKNBE2 cells, 24 h, 3 μM) [%] | Dmax at 6 µM (MycN; SKNBE2 cells, 24 h, 6 μM) [%] | Dmax at 0.5 µM (MycC; L-363 cells, 24 h, 0.5 μM) [%] | Dmax at 1 µM (MycC; L-363 cells, 24 h, 1 μM) [%] | Dmax at 3 µM (MycC; L-363 cells, 24 h, 3 μM) [%] | Dmax at 6 µM (MycC; L-363 cells, 24 h, 6 μM) [%] | Dmax at 0.5 µM (MycN) [%] | Dmax at 1 µM (MycN) [%] | Dmax at 3 µM (MycN) [%] | Dmax at 6 µM (MycN) [%] | Dmax at 0.5 µM (MycC) [%] | Dmax at 1 µM (MycC) [%] | Dmax at 3 µM (MycC) [%] | Dmax at 6 µM (MycC) [%]
1 | COCCNCC12CC(C1)N(c1nccc(Nc3cc(C4CCCC4)[nH]n3)n1)C2 [Compound 67, N-(5-Cyclopentyl-1H-pyrazol-3-yl)-2-[4-[(2-methoxyethylamino)methyl]-2-azabicyclo[2.1.1]hexan-2-yl]pyrimidin-4-amine] |  |  |  |  |  |  |  |  | < 20 | 50 to 79 | 80 to 100 | 80 to 100 | < 20 | < 20 | 80 to 100 | 80 to 100
2 | CS(=O)(=O)CCNCC12CC(C1)N(c1nccc(Nc3cc(C4CCCC4)[nH]n3)n1)C2 [Compound 68, N-(5-Cyclopentyl-1H-pyrazol-3-yl)-2-[4-[(2-methylsulfonylethylamino)methyl]-2-azabicyclo[2.1.1]hexan-2-yl]pyrimidin-4-amine] | < 20 | < 20 | 80 to 100 | 80 to 100 | < 20 | < 20 | 80 to 100 | 80 to 100 |  |  |  |  |  |  |  | 
3 | CC1(NCC23CC(C2)N(c2nccc(Nc4cc(C5CCCC5)[nH]n4)n2)C3)COC1 [Compound 69, N-(5-Cyclopentyl-1H-pyrazol-3-yl)-2-[4-[[(3-methyloxetan-3-yl)amino]methyl]-2-azabicyclo[2.1.1]hexan-2-yl]pyrimidin-4-amine] | 20 to 49 | 20 to 49 | 80 to 100 | 80 to 100 | < 20 |  | 80 to 100 | 80 to 100 |  |  |  |  |  |  |  | 
4 | c1cc(Nc2cc(C3CCCC3)[nH]n2)nc(N2CC3(CN4CCC4)CC2C3)n1 [Compound 76, 2-[4-(Azetidin-1-ylmethyl)-2-azabicyclo[2.1.1]hexan-2-yl]-N-(5-cyclopentyl-1H-pyrazol-3-yl)pyrimidin-4-amine] |  |  |  |  |  |  |  |  |  | < 20 | 80 to 100 | 80 to 100 |  |  | < 20 | 80 to 100

Second part, led by results:

Row | Dmax at 0.5 µM (MycN; SKNBE2 cells, 24 h, 0.5 μM) [%] | Dmax at 1 µM (MycN; SKNBE2 cells, 24 h, 1 μM) [%] | Dmax at 3 µM (MycN; SKNBE2 cells, 24 h, 3 μM) [%] | Dmax at 6 µM (MycN; SKNBE2 cells, 24 h, 6 μM) [%] | Dmax at 0.5 µM (MycC; L-363 cells, 24 h, 0.5 μM) [%] | Dmax at 1 µM (MycC; L-363 cells, 24 h, 1 μM) [%] | Dmax at 3 µM (MycC; L-363 cells, 24 h, 3 μM) [%] | Dmax at 6 µM (MycC; L-363 cells, 24 h, 6 μM) [%] | SMILES | Dmax at 0.5 µM (MycN) [%] | Dmax at 1 µM (MycN) [%] | Dmax at 3 µM (MycN) [%] | Dmax at 6 µM (MycN) [%] | Dmax at 0.5 µM (MycC) [%] | Dmax at 1 µM (MycC) [%] | Dmax at 3 µM (MycC) [%] | Dmax at 6 µM (MycC) [%]
5 | 20 to 49 | 50 to 79 | 80 to 100 | 80 to 100 | 20 to 49 | 80 to 100 | 80 to 100 | 80 to 100 | FC(F)(F)CNCC12CC(C1)N(c1nccc(Nc3cc(C4CCCC4)[nH]n3)n1)C2 [Compound 71, N-(5-Cyclopentyl-1H-pyrazol-3-yl)-2-[4-[(2,2,2-trifluoroethylamino)methyl]-2-azabicyclo[2.1.1]hexan-2-yl]pyrimidin-4-amine] |  |  |  |  |  |  |  | 
6 | 20 to 49 | 20 to 49 | 50 to 79 | 80 to 100 |  |  |  | 80 to 100 | c1cc(Nc2cc(C3CCCC3)[nH]n2)nc(N2CC3(CN4CCOCC4)CC2C3)n1 [Compound 72, N-(5-Cyclopentyl-1H-pyrazol-3-yl)-2-[4-(morpholinomethyl)-2-azabicyclo[2.1.1]hexan-2-yl]pyrimidin-4-amine] |  |  |  |  |  |  |  | 
7 | < 20 | 20 to 49 | 50 to 79 | 80 to 100 |  |  | 20 to 49 | 80 to 100 | O=S1(=O)CCN(CC23CC(C2)N(c2nccc(Nc4cc(C5CCCC5)[nH]n4)n2)C3)CC1 [Compound 73, N-(5-Cyclopentyl-1H-pyrazol-3-yl)-2-[4-[(1,1-dioxo-1,4-thiazinan-4-yl)methyl]-2-azabicyclo[2.1.1]hexan-2-yl]pyrimidin-4-amine] |  |  |  |  |  |  |  | 
8 | 20 to 49 | 20 to 49 | 50 to 79 | 80 to 100 |  |  |  | 50 to 79 | c1cc(Nc2cc(C3CCCC3)[nH]n2)nc(N2CC3(CN4CCCC4)CC2C3)n1 [Compound 75, N-(5-Cyclopentyl-1H-pyrazol-3-yl)-2-[4-(pyrrolidin-1-ylmethyl)-2-azabicyclo[2.1.1]hexan-2-yl]pyrimidin-4-amine] |  |  |  |  |  |  |  | 
